{"source": "ChEMBL document CHEMBL3272271", "about": "“Folate antagonists. 13. 2,4-Diamino-6-](alpha,alpha,alpha-trifluoro-m-tolyl)thio]quinazoline and related 2,4-diamino-6-[(phenyl- and naphthyl)thio]quinazolines, a unique class of antimetabolites with extraordinary antimalarial and antibacterial effects” (J Med Chem, 1978)", "key": {"[1]": {"system": "Mus musculus", "assay": "Toxicity in Plasmodium berghei infected mouse assessed as mortality at 320 mg/kg, sc administered 72 hrs after infection measured after 2 to 5 days", "format": "organism-based", "parameters": "dose 320 mg/kg, route subcutaneous", "conditions": "in vivo"}, "[2]": {"system": "Plasmodium gallinaceum", "assay": "Antimalarial activity against trophozoite-induced Plasmodium gallinaceum infected in white leghorn chicken assessed as increase in mean survival days of host at 30 mg/kg, sc administered 72 hrs after infection relative to control", "format": "functional", "conditions": "route subcutaneous"}, "[3]": {"system": "Plasmodium berghei", "assay": "Antimalarial activity against DDS-resistant Plasmodium berghei assessed as drug resistance relative to control", "format": "functional"}, "[4]": {"system": "Plasmodium berghei", "assay": "Antimalarial activity against Plasmodium berghei infected in mouse assessed as disease cure from parasite infection at 80 mg/kg, sc administered 72 hrs after infection", "format": "functional, organism-based", "parameters": "dose 80 mg/kg"}, "[5]": {"system": "Plasmodium gallinaceum", "assay": "Antimalarial activity against trophozoite-induced Plasmodium gallinaceum infected in white leghorn chicken assessed as disease cure from parasite infection at 120 mg/kg, sc administered 72 hrs after infection", "format": "functional, organism-based", "parameters": "dose 120 mg/kg"}, "[6]": {"system": "Plasmodium gallinaceum", "assay": "Antimalarial activity against sporozoite-induced Plasmodium gallinaceum infected in white leghorn chicken assessed as increase in mean survival days of host at 30 mg/kg, sc administered 72 hrs after infection relative to control", "format": "functional", "conditions": "route subcutaneous"}, "[7]": {"system": "Plasmodium berghei", "assay": "Antimalarial activity against Plasmodium berghei infected in mouse assessed as increase in mean survival days of host at 10 mg/kg, sc administered 72 hrs after infection relative to control", "format": "functional", "conditions": "route subcutaneous"}, "[8]": {"system": "Gallus gallus", "assay": "Toxicity in sporozoite-induced Plasmodium gallinaceum infected white leghorn chicken assessed as mortality at 480 mg/kg, sc administered 72 hrs after infection measured up to 6 days", "format": "organism-based", "parameters": "dose 480 mg/kg, route subcutaneous", "conditions": "in vivo"}, "[9]": {"system": "Plasmodium berghei", "assay": "Antimalarial activity against Plasmodium berghei infected in mouse assessed as increase in mean survival days of host at 40 mg/kg, sc administered 72 hrs after infection relative to control", "format": "functional", "conditions": "route subcutaneous"}, "[10]": {"system": "Plasmodium berghei", "assay": "Ratio of quinine hydrochloride SD90 to compound SD90 for trophozoite-induced Plasmodium berghei infected in mouse assessed as daily dose required to suppression of 90% parasite infection administered with diet for 6 days", "format": "functional"}, "[11]": {"system": "Plasmodium berghei", "assay": "Antimalarial activity against Plasmodium berghei infected in mouse assessed as disease cure from parasite infection at 160 mg/kg, sc administered 72 hrs after infection", "format": "functional, organism-based", "parameters": "dose 160 mg/kg"}, "[12]": {"system": "Plasmodium gallinaceum", "assay": "Antimalarial activity against trophozoite-induced Plasmodium gallinaceum infected in white leghorn chicken assessed as increase in mean survival days of host at 60 mg/kg, sc administered 72 hrs after infection relative to control", "format": "functional", "conditions": "route subcutaneous"}, "[13]": {"system": "Plasmodium gallinaceum", "assay": "Antimalarial activity against sporozoite-induced Plasmodium gallinaceum infected in white leghorn chicken assessed as increase in mean survival days of host at 60 mg/kg, sc administered 72 hrs after infection relative to control", "format": "functional", "conditions": "route subcutaneous"}, "[14]": {"system": "Plasmodium gallinaceum", "assay": "Antimalarial activity against trophozoite-induced Plasmodium gallinaceum infected in white leghorn chicken assessed as disease cure from parasite infection at 160 mg/kg, sc administered 72 hrs after infection", "format": "functional, organism-based", "parameters": "dose 160 mg/kg"}, "[15]": {"system": "Plasmodium berghei", "assay": "Antimalarial activity against Plasmodium berghei infected in mouse assessed as disease cure from parasite infection at 320 mg/kg, sc administered 72 hrs after infection", "format": "functional, organism-based", "parameters": "dose 320 mg/kg"}, "[16]": {"system": "Plasmodium gallinaceum", "assay": "Antimalarial activity against trophozoite-induced Plasmodium gallinaceum infected in white leghorn chicken assessed as disease cure from parasite infection at 30 mg/kg, sc administered 72 hrs after infection", "format": "functional, organism-based", "parameters": "dose 30 mg/kg"}, "[17]": {"system": "Plasmodium berghei", "assay": "Antimalarial activity against Plasmodium berghei infected in mouse assessed as increase in mean survival days of host at 80 mg/kg, sc administered 72 hrs after infection relative to control", "format": "functional", "conditions": "route subcutaneous"}, "[18]": {"system": "Mus musculus", "assay": "Toxicity in Plasmodium berghei infected mouse assessed as mortality at 640 mg/kg, sc administered 72 hrs after infection measured after 2 to 5 days", "format": "organism-based", "parameters": "dose 640 mg/kg, route subcutaneous", "conditions": "in vivo"}, "[19]": {"system": "Gallus gallus", "assay": "Toxicity in sporozoite-induced Plasmodium gallinaceum infected white leghorn chicken assessed as mortality at 240 mg/kg, sc administered 72 hrs after infection measured up to 6 days", "format": "organism-based", "parameters": "dose 240 mg/kg, route subcutaneous", "conditions": "in vivo"}, "[20]": {"system": "Gallus gallus", "assay": "Toxicity in trophozoite-induced Plasmodium gallinaceum infected white leghorn chicken assessed as mortality at 120 mg/kg, sc administered 72 hrs after infection measured after 48 hrs", "format": "organism-based", "parameters": "dose 120 mg/kg, route subcutaneous", "conditions": "in vivo"}, "[21]": {"system": "Plasmodium berghei", "assay": "Antimalarial activity against trophozoite-induced Plasmodium berghei infected in mouse assessed as daily dose required to suppression of 90% parasite infection administered with diet for 6 days", "format": "functional"}, "[22]": {"system": "Gallus gallus", "assay": "Toxicity in sporozoite-induced Plasmodium gallinaceum infected white leghorn chicken assessed as mortality at 60 mg/kg, sc administered 72 hrs after infection measured up to 6 days", "format": "organism-based", "parameters": "dose 60 mg/kg, route subcutaneous", "conditions": "in vivo"}, "[23]": {"system": "Plasmodium berghei", "assay": "Antimalarial activity against Plasmodium berghei infected in mouse assessed as disease cure from parasite infection at 40 mg/kg, sc administered 72 hrs after infection", "format": "functional, organism-based", "parameters": "dose 40 mg/kg"}, "[24]": {"system": "Plasmodium gallinaceum", "assay": "Antimalarial activity against trophozoite-induced Plasmodium gallinaceum infected in white leghorn chicken assessed as disease cure from parasite infection at 60 mg/kg, sc administered 72 hrs after infection", "format": "functional, organism-based", "parameters": "dose 60 mg/kg"}, "[25]": {"system": "Plasmodium gallinaceum", "assay": "Antimalarial activity against sporozoite-induced Plasmodium gallinaceum infected in white leghorn chicken assessed as increase in mean survival days of host at 15 mg/kg, sc administered 72 hrs after infection relative to control", "format": "functional", "conditions": "route subcutaneous"}, "[26]": {"system": "Gallus gallus", "assay": "Toxicity in sporozoite-induced Plasmodium gallinaceum infected white leghorn chicken assessed as mortality at 120 mg/kg, sc administered 72 hrs after infection measured up to 6 days", "format": "organism-based", "parameters": "dose 120 mg/kg, route subcutaneous", "conditions": "in vivo"}, "[27]": {"system": "Plasmodium berghei", "assay": "Antimalarial activity against Plasmodium berghei infected in mouse assessed as increase in mean survival days of host at 20 mg/kg, sc administered 72 hrs after infection relative to control", "format": "functional", "conditions": "route subcutaneous"}}, "note": "The source made the active and inactive calls. The calls are words filed in the database; no cut-off is given here.", "data": [{"smiles": "CC1(C)N=C(N)N=C(N)N1c1ccc(Cl)cc1.Cl", "note": "[CHLORCYCLOGUANIL HYDROCHLORIDE]", "values": [{"measurement": "Activity", "setting": "[1]", "value": "Toxic"}, {"measurement": "MST", "setting": "[2]", "value": 11.7, "unit": "days"}, {"measurement": "fold change (FC)", "setting": "[3]", "value": "<2"}, {"measurement": "Activity", "setting": "[4]", "value": "Active"}, {"measurement": "Activity", "setting": "[5]", "value": "Active"}, {"measurement": "MST", "setting": "[6]", "value": 2.3, "unit": "days"}, {"measurement": "MST", "setting": "[7]", "value": 4.9, "unit": "days"}, {"measurement": "Activity", "setting": "[8]", "value": "Toxic"}, {"measurement": "MST", "setting": "[9]", "value": 13.4, "unit": "days"}, {"measurement": "Ratio", "setting": "[10]", "value": 35}, {"measurement": "Activity", "setting": "[11]", "value": "Active"}, {"measurement": "MST", "setting": "[12]", "value": 15.1, "unit": "days"}, {"measurement": "MST", "setting": "[13]", "value": 0, "unit": "days"}, {"measurement": "Activity", "setting": "[14]", "value": "Active"}, {"measurement": "Activity", "setting": "[15]", "value": "Active"}, {"measurement": "Activity", "setting": "[16]", "value": "Active"}, {"measurement": "MST", "setting": "[17]", "value": 21.6, "unit": "days"}, {"measurement": "Activity", "setting": "[18]", "value": "Toxic"}, {"measurement": "Activity", "setting": "[19]", "value": "Toxic"}, {"measurement": "Activity", "setting": "[20]", "value": "Toxic"}, {"measurement": "SD90", "setting": "[21]", "value": 2.1, "unit": "mg/kg/day"}, {"measurement": "Activity", "setting": "[22]", "value": "Toxic"}, {"measurement": "Activity", "setting": "[23]", "value": "Active"}, {"measurement": "Activity", "setting": "[24]", "value": "Active"}, {"measurement": "MST", "setting": "[25]", "value": 0, "unit": "days"}, {"measurement": "Activity", "setting": "[26]", "value": "Toxic"}, {"measurement": "MST", "setting": "[27]", "value": 7.9, "unit": "days"}]}]}
